These results are taken from PMC11050443, “Discovery of Strong 3-Nitro-2-Phenyl-2H-Chromene Analogues as Antitrypanosomal Agents and Inhibitors of Trypanosoma cruzi Glucokinase” (International Journal of Molecular Sciences, 2024).

Data set [1] concerns T. cruzi (Tulahuen strain) infective form co-cultured in NIH-3T3 fibroblasts. The experiment in a line: In vitro T. cruzi biological assay (β-galactosidase/CPRG). The data set is classed as cell-based, Trypanosoma cruzi. To be noted: for IC50: Tulahuen strain infective form growth inhibition co-cultured in NIH-3T3 fibroblasts, 4 days, N = 3; for T. cruzi growth inhibition (in words): efficacy in IC50. As to the method: General methods for the preparation of in vitro cell cultures involving T. cruzi parasites and mammalian cells along with the exposure to inhibitors has previously been described by Andriani and colleagues. T. cruzi (Tulahuen strain) that expresses β-galactosidase was harvested by centrifugation at 2500 rpm for 7 min. Parasites were rinsed twice with DMEM lacking phenol red and supplemented with 2% fetal bovine serum (FBS) and 1% penicillin—streptomycin—L-glutamine (PSG); the final concentrations of the PSG components were 100 U/mL penicillin, 0.1 mg/mL streptomycin, and 0.292 mg/mL L-glutamine. It was necessary to exclude phenol red since it interferes with the absorbance reading at λ = 590 nm. The parasites were centrifuged again for 7 min at 2500 rpm and the 50 mL tubes were carefully removed from the centrifuge. The tubes were placed on a rack with an incubator so that the trypomastigotes would move out of the pellet in a timeframe of 3–5 h. During this period, 100 μL of NIH-3T3 cells (50,000 cells) were plated per well in a transparent, clear, flat-bottom, and sterile 96-well microplate. This plate was placed in an incubator for 3 h at 37 °C to allow the cells to attach. The 3-nitro-2-phenyl-2H-chromene compounds (inhibitors) that were prepared as 10.0 mM stock solutions in 100% DMSO were thawed from −80 °C to room temperature. The compound solutions were diluted to their desired working concentrations, which ranged from 0.0781–10.0 μM. This was accomplished by serial dilution using a 2-fold dilution. A total of 100 μL of parasites was added to each well, which contained 50,000 trypomastigotes, and were incubated for 4 days. Using a multichannel pipette, 50.0 μL of the substrate solution [500 μM CPRG in phosphate buffered saline supplemented with 0.5% detergent NP-40] was added to each well of the 96-well microplate. The plate was placed into an incubator for 4 h followed by measuring absorbance readings at λ = 590 nm using a Victor Nivo multimode microplate reader (PerkinElmer, Inc.; Shelton, CT, USA). All measurements were performed in triplicate; absorbance values were proportional to parasite cell viability. IC50 determinations for percent growth inhibition were processed using GraphPad Prism 10.0. Amphotericin B was used as a positive control, the final solution concentration of which was 4.0 μM (prepared as a 270 μM stock solution). Four control conditions were carried out, as follows: (a) NIH-3T3 cells and parasites, (b) NIH-3T3 cells without parasites, (c) NIH-3T3 cells, parasites, and 4.0 μM amphotericin B, and (d) the medium alone.

In another data set the test system is NIH-3T3 fibroblasts. As to the kind of experiment: In vitro cytotoxicity assay of mammalian NIH-3T3 fibroblasts (Alamar blue). To be noted: NIH-3T3 fibroblast growth inhibition, host cell toxicity; 4 days; N = 3. The data set is classed as cell-based. As for the experimental part: The in vitro cell culturing of mammalian NIH-3T3 fibroblasts following treatment with inhibitors to assess for cytotoxicity has previously been described. DMEM lacking phenol red and supplemented with 2% FBS and 1% PSG was warmed up. NIH-3T3 cells were trypsinized, as described in the cell culture protocol. When cells became detached, they were harvested in DMEM lacking phenol red and including 2% FBS and 1% PSG. The cells were centrifuged at 1000 rpm for 5 min, the medium was discarded, and the cells were resuspended in fresh DMEM lacking phenol red and including 2% FBS and 1% PSG. The cells were centrifuged at 1000 rpm for 5 min, resuspended in the medium, counted, and diluted to 500,000 cells/mL. Dilution was accomplished by transferring the stock number of cells into a sterile basin and 100 μL of cells was added to each well of a transparent, sterile, flat-bottom, 96-well microplate (50,000 cells/well) using a multichannel pipette. The plate was placed into the incubator for 3 h to allow cells to attach. The 3-nitro-2-phenyl-2H-chromene compounds were thawed from −80 °C to room temperature. The compounds were prepared as 10.0 mM stock solutions in 100% DMSO. A volume of 2.0 μL of a given compound plus a volume of 98.0 μL of fresh media were both added to a well in the first row of the 96-well microplate; this was performed for each compound to be tested. The solutions were mixed with a micropipette, followed by the transfer of 100 μL to the next row and repeated. The compound solutions ranged from 0.0139–30.3 μM and this was accomplished by serial dilution using a 3-fold dilution. After incubation for 4 days, 10.0 μL of Alamar blue was added to each well. Absorbance readings were measured using a Victor Nivo multimode microplate reader (PerkinElmer, Inc.; Shelton, CT, USA) at λ = 590 nm. All measurements were performed in triplicate and TC50 determinations for percent growth inhibition were carried out using GraphPad Prism 10.0. The final volume per well of cells and a given compound was 100 μL and this volume became 110 μL after the addition of Alamar blue. The detergent SDS was used as a positive control and its final solution concentration was 0.1%. Three controls were carried out, as follows: (a) NIH-3T3 cells alone, (b) perished NIH-3T3 cells (NIH-3T3 cells in the presence of 0.1% SDS), and (c) the medium alone.
Background: The colour change of resazurin is a common sign of viable cells or microbes.

The subject of another data set is TcGlcK. Details: method as in PMID 31133533. To be noted: earlier HTS campaign of 13,040 compounds; cited from earlier work.
Setting [2] is: Trypanosoma cruzi, TULAHUEN, NIH3T3, 96 h.

Values joined by “and” are separate entries in the source; they are usually repeats but may differ in a detail not shown here. Equal values may be shown once.

Consider `COc1ccc(C2Oc3ccc(Br)cc3C=C2[N+](=O)[O-])cc1OC` (stereo not shown) [Compound 4, 6-Bromo-2-(3,4-dimethoxyphenyl)-3-nitro-2H -chromene], for which the IC50 – broadly, the concentration at which inhibition is half-maximal – in data set [1] (setting [2]) was less than 2000 nM; in data set [1], 1310 ± 150 nM. In addition, the “NIH-3T3 TC50” value in the data set on NIH-3T3 fibroblasts turned out to be 16400 ± 1910 nM.
With `CCOc1ccc(C2Oc3ccc(Br)cc3C=C2[N+](=O)[O-])cc1OC` (stereo not shown) [Compound 1, 6-Bromo-2-(4-ethoxy-3-methoxyphenyl)-3-nitro-2H -chromene], the half-maximal inhibitory concentration (IC50) was less than 2000 nM in data set [1] (setting [2]), 1490 ± 70 nM in data set [1] and 6100 nM with TcGlcK. In the data set with NIH-3T3 fibroblasts, the “NIH-3T3 TC50” value was 16000 ± 1840 nM.
As for `O=[N+]([O-])C1=Cc2cc(Br)cc(Br)c2OC1c1c(Cl)cccc1Cl` (stereo not shown) [Compound 7, 2-(2,6-Dichlorophenyl)-6,8-dibromo-3-nitro-2H -chromene], half-maximal inhibition in data set [1] (setting [2]) (IC50) was put at 640 ± 20 nM. The “T. cruzi growth inhibition (in words)” value in data set [1] was “nanomolar efficacy”. Besides, in the data set on NIH-3T3 fibroblasts, the “NIH-3T3 TC50” value stood at 11900 ± 510 nM.
For the compound `CCOc1ccc(C2Oc3ccc(Br)cc3C=C2[N+](=O)[O-])cc1OCC` (stereo not shown) [Compound 2, 6-Bromo-2-(3,4-diethoxyphenyl)-3-nitro-2H -chromene], inhibition in data set [1] (setting [2]) was half-maximal at 1440 ± 70 nM (IC50).
In data set [1] (setting [2]), `O=[N+]([O-])C1=Cc2ccccc2OC1c1c(Cl)cccc1Cl` (stereo not shown) [Compound 13, 2-(2,6-Dichlorophenyl)-3-nitro-2H -chromene] yielded an IC50 of 3080 ± 80 nM.
In data set [1] (setting [2]), `COc1ccc(C2Oc3c(Br)cc(Br)cc3C=C2[N+](=O)[O-])cc1OC` (stereo not shown) [Compound 5, 6,8-Dibromo-2-(3,4-dimethoxyphenyl)-3-nitro-2H -chromene] had an IC50 of 640 ± 230 nM.
In data set [1] (setting [2]), `COc1ccc(C2Oc3c(cc(Br)cc3OC)C=C2[N+](=O)[O-])cc1OC` (stereo not shown) [Compound 3, 6-Bromo-2-(3,4-dimethoxyphenyl)-8-methoxy-3-nitro-2H -chromene] displayed an IC50 of 960 ± 20 nM. The “NIH-3T3 TC50” value with NIH-3T3 fibroblasts came to 17500 ± 1900 nM.
`CCOc1ccc(C2Oc3c(Br)cc(Br)cc3C=C2[N+](=O)[O-])cc1OC` (stereo not shown) [Compound 6, 6,8-Dibromo-2-(4-ethoxy-3-methoxyphenyl)-3-nitro-2H -chromene]: the concentration for half-maximal inhibition (IC50) in data set [1] (setting [2]) was no less than 2000 nM; in data set [1], 2560 ± 260 nM. The “NIH-3T3 TC50” value with NIH-3T3 fibroblasts is 18100 ± 240 nM.
In the case of `O=[N+]([O-])C1=Cc2cc(Br)ccc2OC1c1ccccc1Cl` (stereo not shown) [Compound 11, 6-Bromo-2-(2-chlorophenyl)-3-nitro-2H -chromene], in data set [1], the “T. cruzi growth inhibition (in words)” value is on record as “nanomolar efficacy”. Further, in the data set with NIH-3T3 fibroblasts, the “NIH-3T3 TC50” value was 4120 nM and 4120 ± 1950 nM.
Turning to `CCOc1ccc(C2Oc3c(cc(Br)cc3OC)C=C2[N+](=O)[O-])cc1OC` (stereo not shown) [Compound 8, 6-Bromo-2-(4-ethoxy-3-methoxyphenyl)-8-methoxy-3-nitro-2H -chromene], the concentration for half-maximal inhibition (IC50) in data set [1] (setting [2]) came out at 1850 ± 150 nM.
`CCOc1ccc(C2Oc3ccccc3C=C2[N+](=O)[O-])cc1OCC` (stereo not shown) [Compound 10, 2-(3,4-Diethoxyphenyl)-3-nitro-2H -chromene] had a concentration for half-maximal inhibition (IC50) in data set [1] (setting [2]) of 2560 ± 260 nM. Besides, the “NIH-3T3 TC50” value in the data set on NIH-3T3 fibroblasts amounted to 9450 ± 2200 nM.
Turning to `CCOc1ccc(C2Oc3c(Cl)cc(Cl)cc3C=C2[N+](=O)[O-])cc1OCC` (stereo not shown) [Compound 9, 6,8-Dichloro-2-(3,4-diethoxyphenyl)-3-nitro-2H -chromene], in the data set with NIH-3T3 fibroblasts, the “NIH-3T3 TC50” value was determined as 17500 ± 1600 nM. The IC50 with TcGlcK is 4800 nM.
